Earlier results in patent US7981858B1, “Methods of using zinc containing compounds to improve ocular health” (Alcon, Inc., priority 2004, dated 2011).

Tests used:
[1] = about 200 mg dosage of zinc per day
[2] = 80 mg of zinc, versus placebo

Compound: [Zn] [zinc]
- tolerability [1]: well tolerated
- side effects ([1]; anemia attributable to copper deficiency): potential side effects such as anemia
- retarding macular degeneration changes [2]: significantly better than placebo
